Experimental findings from US6342484B1, “Method and compositions for promotion of wound treatment” (Board of Regents, The University of Texas Systems, priority 1993, dated 2002) are described below.

Structures are written as SMILES.

For assay [1], the system named is wound cylinder of PTFE in Balb/C mice. Kind of assay: Wound hydroxyproline content in PTFE wound cylinder, adenine/uracil/RNA diets (Example 2, FIG. 1). In kind it is in vivo, mouse. The conditions noted are these: for amount of OHP/cm PTFE over both the nucleotide free and the non-supplemented diets: diet at least 30 days before implantation, tenth post-operative day. From the text: Twenty-five Balb/C mice were divided into five test groups (n=5) and housed in groups in the animal care facilities. Each group received one of the following diets ad libertum: F—normal mouse chow, NF—nucleotide free diet, NFR—yeast RNA supplemented diet, NFA—adenine supplemented diet, and NFU—uracil supplemented diet. All groups received these diets for at least 30 days prior to wound cylinder implantation. All animals received water ad libitum.
Polytetrafluorethylene (PTFE, Impra Vascular Graft, 3 mm lumen, […]) wound cylinders (1.5 cm long) were placed subcutaneously in the dorsal midline of each animal under general anesthesia (Methoxyflurane, inhalation). All animals were continued on their test diets. On the tenth post-operative day, all animals were euthanized by cervical dislocation and the would cylinders were removed for analysis.
Wound cylinders were analyzed for hydroxyproline (OHP) content using the method of Woessner. Briefly, approximately 1 cm segments of the wound cylinders were hydrolyzed in 0.5 ml 6 N HCl for 3 hours at 130 C. Samples were cooled and 0.5 ml aliquots were neutralized with the appropriate volume of 1 N NaOH. Each sample was diluted to 5.25 ml with H2O in order to reduce the total NaCl concentration to below 0.4 M. Each sample was then reacted as described by Woessner.

The subject of assay [2] is 4mm punch wound in Balb/c mice. The assay can be described thus: Topical applications on 4 mm punch wounds, visual contraction of wounds (Example 5). In kind it is in vivo, mouse. The settings on record: for Relative efficacy (wound contraction): topical agent on wound, uracil 100 μM, two weeks. On the procedure: Balb/c mice were divided into three dietary groups (F=normal mouse chow; NF=nucleotide free mouse chow; and NFR=nucleotide free mouse chow supplemented with yeast RNA). Each group was fed before initiation of wounds. After 4 weeks of feeding, a 4mm punch wound was created on the dorsal surface of each mouse, using a 4mm biopsy punch. The wounds were coated with four different topical agents: 1) saline; 2) uracil {100 μM concentration); 3) saline+CCM; and 4) Uracil+CCM (CCM=crosslinked collagen mesh). CCM is ‘Collagen Permeable Membrane’ from Accurate Chemical & Scientific Corporation, catalog no. YIC 152299. Four mm size circles were soaked with appropriate nucleotide or saline solution (4mm punch wounds) and used to dress the wounds.
Twelve groups were formed from these combinations (n=3). Mice were continued on their respective diets. Wounds were observed visually and photographed at four different times during the experimental period of two weeks.
A record was made of the progressive contraction of the wounds and area among the various dietary and treatment groups.

For the molecule `Nc1ncnc2nc[nH]c12` [Adenine, adenine], in assay [1], the “fold increase of the amount of OHP in the wound” value was “close to two times”; the “significance of OHP increase over the non-supplemented diet” value is listed as “statistically significant”; the “significance of OHP increase over the nucleotide free diet” value is listed as “significant”; the “amount of OHP/cm PTFE over both the nucleotide free and the non-supplemented diets” value is on record as “increased”.

`OC[C@H]1O[C@@H](n2cnc3c(O)ncnc32)[C@H](O)[C@@H]1O` [inosine]: in assay [2] (100 μM as topical agent in place of uracil), the “results compared with uracil as topical agent” value is listed as “no significant differences”.

For `O=c1cc[nH]c(=O)[nH]1` [uracil], in assay [1], the “amount of OHP/cm PTFE over both the nucleotide free and the non-supplemented diets” value was “increased”. Further, the “Relative efficacy (wound contraction)” value is listed as “moderate” in assay [2] (Diet F (normal mouse chow)), “minimal” in assay [2] (Diet NF (nucleotide free chow)) and “moderate” in assay [2] (Diet NFR (yeast RNA supplemented)).
